Measured values reported in patent publication US5348969A, “Diphenyloxazolyl-oxazoles as platelet aggregation inhibitors” (Bristol-Myers Squibb Company, priority 1992, dated 1994).
In brackets after ≈: the same amount, converted by molar mass.

Legend:
[1] = test system: ADP-induced aggregation of human blood platelets in platelet-rich-plasma; test: In vitro inhibition of ADP-induced human platelet aggregation (aggregometer method, PRP); type: cell-based; settings: for IC50 / inhibition at 32 µg/mL: Homo sapiens, Platelet; for IC50: read-out: IC50 (human PRP vs ADP), human PRP, incubated at about 37° C. for about 3 minutes prior to ADP; for inhibition at 32 µg/mL: read-out: percentage in brackets beside the IC50 entry 32 (inhibition of ADP-induced aggregation); for IC50 (human PRP vs ADP): incubated at about 37° C. for about 3 minutes prior to ADP
Description: The aggregometer method of Born, G. V. R., J. Physiol., (London), 162, 67-68, (1962) as modified by Mustard, J. F., et al., J. Lab. Clin. Med., 64, 548-599, (1964) was used to assess the in vitro activity of the various compounds as to the inhibition of adenosine diphosphate (ADP) and collagen-induced platelet aggregation. The human volunteer donor's arm is cleansed with 70% ethyl alcohol. A sterile 20 ml syringe and needle are used to withdraw 20 ml of blood. The blood is immediately added to a test tube containing 3.8% sodium citrate to prevent clotting (1 part citrate to 9 parts blood).
Platelet rich plasma (PRP) was separated by centrifugation for 10 minutes at 1000 rpm (140×g) from citrated (3.8%) human blood. All glassware used for preparation of PRP is silicon treated. ADP in final concentration of 0.5 mcg/mL or 0.05 mL of a collagen suspension prepared according to the method described by Evans, G., et al., J. Exp. Med., 128, 877-894, (1968) was used to induce aggregation. The various compounds tested were dissolved in dimethylsulfoxide (DMSO) so that 5 mcl added to the platelet rich plasma would yield the desired test concentration. Vehicle control trials were done and compared with aggregation induced in platelet rich plasma containing various concentrations of the test compounds. Dose response curves were obtained and Inhibitor Concentration (IC50) values calculated.
The target compounds were evaluated as inhibitors of ADP-induced aggregation of human blood platelet in platelet-rich-plasma (PRP) in vitro. The test compounds were incubated at about 37° C. in PRP for about 3 minutes prior to the addition of sufficient ADP to provide final ADP concentration of […].

[2] = test system: platelet aggregation (human PRP vs ADP); settings: U.S. Pat. No. 4,460,598 / Drugs of the Future 11, 26 (1986), cited from earlier work

Row | Compound | IC50 [1] [µg/mL] | also measured
1 | COC(=O)COc1cccc([C@@H]2OC=N[C@H]2c2nc(-c3ccccc3)c(-c3ccccc3)o2)c1 (relative stereo) [Compound 31, Methyl[3-[4-(4,5-diphenyl-2-oxazolyl)-4,5-dihydro-5-oxazolyl]phenoxy]acetate] | 0.08 (≈ 0.176 µM) | 
2 | COC(=O)COc1cccc([C@@H]2OC(C)=N[C@H]2c2nc(-c3ccccc3)c(-c3ccccc3)o2)c1 (relative stereo) [Compound 39, Methyl[3-[4-(4,5-diphenyl-2-oxazolyl)-4,5-dihydro-2-methyl-5-oxazolyl]phenoxy]acetate] | 0.65 (≈ 1.39 µM) | 
3 | COC(=O)COc1cccc([C@@H]2OC(c3ccccc3)=N[C@H]2c2nc(-c3ccccc3)c(-c3ccccc3)o2)c1 (relative stereo) [Compound 40, Methyl[3-[4-(4,5-diphenyl-2-oxazolyl)-4,5-dihydro-2-phenyl-5-oxazolyl]phenoxy]acetate] | 10 (≈ 18.8 µM) | 
4 | COC(=O)COc1cccc([C@H]2OC(C)=N[C@H]2c2nc(-c3ccccc3)c(-c3ccccc3)o2)c1 (relative stereo) [Compound 41, Methyl[3-[4-(4,5-diphenyl-2-oxazolyl)-4,5-dihydro-2-methyl-5-oxazolyl]phenoxy]acetate] | 27 (≈ 57.6 µM) | 
5 | COC(=O)COc1cccc([C@H]2OC(c3ccccc3)=N[C@H]2c2nc(-c3ccccc3)c(-c3ccccc3)o2)c1 (relative stereo) [Compound 42, Methyl[3-[4-(4,5-diphenyl-2-oxazolyl)-4,5-dihydro-2-phenyl-5-oxazolyl]phenoxy]acetate] | 32 (≈ 60.3 µM) | inhibition at 32 µg/mL [1]: 15%
6 | COC(=O)COc1cccc(-c2ncoc2-c2nc(-c3ccccc3)c(-c3ccccc3)o2)c1 [Compound 4] | 0.174 (≈ 0.385 µM) | 
7 | O=C(O)COc1cccc(-c2ncoc2-c2nc(-c3ccccc3)c(-c3ccccc3)o2)c1 [Compound 5] | 0.07 (≈ 0.16 µM) | 
8 | COC(=O)COc1cccc(-c2ccccc2-c2nc(-c3ccccc3)c(-c3ccccc3)o2)c1 [Compound 6, Methyl[2'-(4,5-diphenyl-2-oxazolyl)-[1,1'-biphenyl]-3-yloxy]acetate] | 32 (≈ 69.3 µM) | inhibition at 32 µg/mL [1]: 34%
9 | O=C(O)COc1cccc(-c2ccccc2-c2nc(-c3ccccc3)c(-c3ccccc3)o2)c1 [Compound 7, [2'-(4,5-Diphenyl-2-oxazolyl)-[1,1'-biphenyl]-3-yloxy]acetic acid] | 5 (≈ 11.2 µM) | 
10 | COC(=O)COc1cccc(-c2nn(C)cc2-c2nc(-c3ccccc3)c(-c3ccccc3)o2)c1 [Compound 11, Methyl[3-[4-(4,5-diphenyl-2-oxazoly)-1-methyl-3-pyrazolyl]phenoxy]acetate] | 1.12 (≈ 2.41 µM) | 
11 | Cn1cc(-c2nc(-c3ccccc3)c(-c3ccccc3)o2)c(-c2cccc(OCC(=O)O)c2)n1 [Compound 12] | 0.3 (≈ 0.664 µM) | 
12 | COC(=O)COc1cccc(-c2c(-c3nc(-c4ccccc4)c(-c4ccccc4)o3)cnn2C)c1 [Compound 13, Methyl[3-[4-(4,5-diphenyl-2-oxazolyl)-1-methyl-5-pyrazolyl]phenoxy]acetate] | 0.75 (≈ 1.61 µM) | 
13 | Cn1ncc(-c2nc(-c3ccccc3)c(-c3ccccc3)o2)c1-c1cccc(OCC(=O)O)c1 [Compound 14] | 0.5 (≈ 1.11 µM) | 
14 | COC(=O)COc1cccc(-c2[nH]ncc2-c2nc(-c3ccccc3)c(-c3ccccc3)o2)c1 [Compound 15, Methyl[3-[4-(4,5-diphenyl-2-oxazolyl)-5-pyrazolyl]phenoxy]acetate] | 0.07 (≈ 0.155 µM) | 
15 | O=C(O)COc1cccc(-c2[nH]ncc2-c2nc(-c3ccccc3)c(-c3ccccc3)o2)c1 [Compound 16, [3-[4-(4,5-Diphenyl-2-oxazolyl)-5-pyrazolyl]phenoxy]acetic acid] | 0.08 (≈ 0.183 µM) | 
16 | COC(=O)COc1cccc(-c2oc(C)nc2-c2nc(-c3ccccc3)c(-c3ccccc3)o2)c1 [Compound 23, Methyl[3-[4-(4,5-diphenyl-2-oxazolyl)-2-methyl-5-oxazolyl]phenoxy]acetate] | 0.13 (≈ 0.279 µM) | 
17 | Cc1nc(-c2nc(-c3ccccc3)c(-c3ccccc3)o2)c(-c2cccc(OCC(=O)O)c2)o1 [Compound 24] | 0.02 (≈ 0.0442 µM) | 
18 | COC(=O)COc1cccc(-c2oc(-c3ccccc3)nc2-c2nc(-c3ccccc3)c(-c3ccccc3)o2)c1 [Compound 25, Methyl[3-[4-(4,5-diphenyl-2-oxazolyl) -2-phenyl-5-oxazolyl]phenoxy]acetate] | 32 (≈ 60.5 µM) | inhibition at 32 µg/mL [1]: 6%
19 | O=C(O)COc1cccc(-c2oc(-c3ccccc3)nc2-c2nc(-c3ccccc3)c(-c3ccccc3)o2)c1 [Compound 26, [3-[4-(4,5-Diphenyl-2-oxazolyl)-2-phenyl-5-oxazolyl]phenoxy]acetic acid] | 32 (≈ 62.2 µM) | 
20 | COC(=O)COc1cccc(C(O)C(NC=O)c2nc(-c3ccccc3)c(-c3ccccc3)o2)c1 (centres unmarked) [Compound 33, Methyl[3-[2-(4,5-diphenyl-2-oxazolyl)-2-(formylamino)-1-hydroxy-ethyl]phenoxy]acetate] | 10 (≈ 21.2 µM) | 
21 | O=CNC(c1nc(-c2ccccc2)c(-c2ccccc2)o1)C(O)c1cccc(OCC(=O)O)c1 (centres unmarked) [Compound 36] | 6.5 (≈ 14.2 µM) | 
22 | NC(c1nc(-c2ccccc2)c(-c2ccccc2)o1)C(O)c1cccc(OCC(=O)O)c1 (centres unmarked) [Compound 37] |  | IC50 (human PRP vs ADP) [1]: 0.9 µg/mL (≈ 2.09 µM)
23 | COC(=O)COc1cccc(C(O)C(N)c2nc(-c3ccccc3)c(-c3ccccc3)o2)c1 (centres unmarked) [Compound 38, Methyl[3-[2-(4,5-diphenyl-2-oxazolyl)-2-amino-1-hydroxyethyl]phenoxy]acetate] | 2.8 (≈ 6.3 µM) | 
24 | COC(=O)COc1cccc(C2OC(=O)NC2c2nc(-c3ccccc3)c(-c3ccccc3)o2)c1 (centres unmarked) [Compound 43, Methyl[3-[4-(4,5-diphenyl-2-oxazolyl)-2-oxo-5-oxazolidinyl]phenoxy]acetate] | 5 (≈ 10.6 µM) | 
25 | O=C(O)COc1cccc(C2OC(=O)NC2c2nc(-c3ccccc3)c(-c3ccccc3)o2)c1 (centres unmarked) [Compound 44, [3-[4-(4,5-Diphenyl-2-oxazolyl)-2-oxo-5-oxazolidinyl]phenoxy]acetic acid] |  | IC50 (human PRP vs ADP) [1]: 1 µg/mL (≈ 2.19 µM)
26 | O=C(O)COc1cccc(C2OC(=O)NC2c2nc(-c3ccccc3)c(-c3ccccc3)o2)c1 (centres unmarked) [Compound 45, [3-[4-(4,5-Diphenyl-2-oxazolyl)-2-oxo-5-oxazolidinyl]phenoxy]acetic acid] |  | inhibition at 32 µg/mL [1]: 8%; IC50 (human PRP vs ADP) [1]: 32 µg/mL (≈ 70.1 µM)
27 | O=C(O)CCCCCCCOc1nc(-c2ccccc2)c(-c2ccccc2)n1-c1ccccc1 [Octimibate] |  | inhibition of platelet aggregation, in words [2]: broad spectrum inhibitor of platelet aggregation; IC50 (human PRP vs ADP) ([2]; human PRP vs ADP): 1 µg/mL (≈ 2.2 µM)
